In patent US20230117034A1, “PYRAZOLOTRIAZINES” (Bayer Aktiengesellschaft, priority 2019, published 2023):

Tests used:
CDK9/CycT1 = molecular target: T1, CDK9/CycT1 (Homo sapiens, UniProt P50750); test: CDK9/CycT1 high ATP kinase assay (TR-FRET, 2 mM ATP); type: biochemical; conditions: 2 mM ATP (high ATP); median; read-out: CDK9/CyclinT1, 2 mM ATP (high ATP), IC50 (median)
T1 construct: Recombinant full-length His-tagged human CDK9 and CycT1; purchased Life Technologies PV4131; host or cells: insect cells
Procedure, shortened: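 Full-length His-tagged human CDK9/CycT1 (insect cell, ~0.5 μg/mL) preincubated 15 min at 22 °C with compound in Tris pH 8.0, MgCl2, DTT buffer before reaction with biotinylated peptide substrate at high ATP (2 mM).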

[1] = system: CAL-120, human breast adenocarcinoma cells; test: Proliferation assay CAL-120 (crystal violet, 4 days); type: cell-based; conditions: Homo sapiens, CAL-120, 96 h, CAL-120 cells, median, read-out: Prolif-CAL-120, IC50-[mol/l] (median)
Procedure, shortened: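 Cells seeded at 4,000/well in medium with 10% FCS; after 24 h, compounds added at 0.01-10 µmol/L (0.1% DMSO) for 4 days. Glutaraldehyde-fixed, crystal violet-stained, absorbance at 595 nm normalized to zero-point plate (0%) and untreated cells (100%); IC50 by 4-parameter fit.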

[2] = molecular target: T2, CDK12 (nuclear staining in CAL-120 cells) (Homo sapiens, UniProt Q9NYV4); test: CDK12 nuclear protein level: immunofluorescence/high content analysis (CAL-120); type: cell-based; conditions: for DC50: CAL-120 cells, 24 h, immunofluorescence, 50% reduction of nuclear CDK12 staining intensity, median, read-out: CDK12 degradation IF, DC50- [mol/l] (median); for (IC50 CDK12 high ATP) to (Degradation DC50 CDK12) ratio: ratio of IC50 CDK12 high ATP kinase assay to DC50 CDK12 degradation (IF, CAL-120)
T2 construct: endogenous in cells; host or cells: CAL-120 human breast cancer cells (DSMZ ACC 459)
Procedure, shortened: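 CAL-120 cells were treated with compound for 24 h at 37 °C, fixed with PFA and immunostained for CDK12. Nuclear CDK12 intensity was quantified by automated image analysis and normalized to DMSO and control. DC50 is the concentration giving 50% reduction of nuclear staining.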

[3] = molecular target: T3, CYCLIN K (nuclear staining in CAL-120 cells) (Homo sapiens, UniProt O75909); test: CYCLIN K nuclear protein level: immunofluorescence high content analysis (CAL-120); type: cell-based; conditions: 24 h, 50% reduction of nuclear CCNK staining intensity, median, read-out: CYCLIN K degradation IF, DC50-[mol/l] (median)
T3 construct: endogenous in cells; host or cells: CAL-120 human breast cancer cells (DSMZ ACC 459)
Procedure, shortened: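 CAL-120 breast cancer cells treated in dose-response for 24 h at 37 °C, PFA-fixed and immunostained for cyclin K with Hoechst counterstain. Confocal imaging quantified nuclear intensity; DC50 is the concentration giving 50% reduction of nuclear CCNK staining, normalized to DMSO and control.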

T2 sequence (Q9NYV4 whole entry): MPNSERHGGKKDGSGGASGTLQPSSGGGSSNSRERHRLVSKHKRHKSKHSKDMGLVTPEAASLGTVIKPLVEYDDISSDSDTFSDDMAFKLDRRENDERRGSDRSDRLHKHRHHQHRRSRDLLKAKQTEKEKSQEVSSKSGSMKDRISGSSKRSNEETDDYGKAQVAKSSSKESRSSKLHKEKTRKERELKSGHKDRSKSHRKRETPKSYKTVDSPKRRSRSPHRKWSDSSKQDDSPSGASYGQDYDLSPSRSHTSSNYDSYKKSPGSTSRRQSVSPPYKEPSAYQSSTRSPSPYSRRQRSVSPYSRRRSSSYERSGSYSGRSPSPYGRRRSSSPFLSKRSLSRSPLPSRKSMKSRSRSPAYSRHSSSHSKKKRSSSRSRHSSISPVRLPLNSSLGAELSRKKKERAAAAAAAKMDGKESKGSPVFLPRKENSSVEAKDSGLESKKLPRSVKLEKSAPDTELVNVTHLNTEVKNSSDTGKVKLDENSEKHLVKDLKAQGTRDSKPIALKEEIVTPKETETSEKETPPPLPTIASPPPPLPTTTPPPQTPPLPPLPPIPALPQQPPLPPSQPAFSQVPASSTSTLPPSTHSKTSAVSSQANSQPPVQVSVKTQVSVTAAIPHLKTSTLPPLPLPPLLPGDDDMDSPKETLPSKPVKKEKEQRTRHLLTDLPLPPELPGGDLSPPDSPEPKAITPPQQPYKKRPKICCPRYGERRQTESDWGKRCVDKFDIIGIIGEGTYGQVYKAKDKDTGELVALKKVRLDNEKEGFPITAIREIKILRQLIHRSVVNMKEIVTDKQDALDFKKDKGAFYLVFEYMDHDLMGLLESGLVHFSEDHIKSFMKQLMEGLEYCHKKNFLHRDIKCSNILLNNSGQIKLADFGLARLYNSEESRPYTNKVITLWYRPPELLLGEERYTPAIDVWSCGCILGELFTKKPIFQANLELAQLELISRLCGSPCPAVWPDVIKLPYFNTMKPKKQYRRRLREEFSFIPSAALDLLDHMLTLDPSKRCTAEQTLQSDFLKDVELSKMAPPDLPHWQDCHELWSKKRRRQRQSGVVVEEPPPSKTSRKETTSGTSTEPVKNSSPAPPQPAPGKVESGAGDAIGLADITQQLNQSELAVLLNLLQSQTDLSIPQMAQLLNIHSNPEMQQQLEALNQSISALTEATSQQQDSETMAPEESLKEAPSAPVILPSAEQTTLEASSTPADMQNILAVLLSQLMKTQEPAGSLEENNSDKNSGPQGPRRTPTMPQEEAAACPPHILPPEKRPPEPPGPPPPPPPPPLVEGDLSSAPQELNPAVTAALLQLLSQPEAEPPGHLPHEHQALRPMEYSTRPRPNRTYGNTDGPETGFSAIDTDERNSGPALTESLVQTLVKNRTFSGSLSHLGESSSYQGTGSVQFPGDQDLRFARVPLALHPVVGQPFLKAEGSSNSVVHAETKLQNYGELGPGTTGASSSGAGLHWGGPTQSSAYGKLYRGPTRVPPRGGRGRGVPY
T2 sequence (O75909 whole entry partner): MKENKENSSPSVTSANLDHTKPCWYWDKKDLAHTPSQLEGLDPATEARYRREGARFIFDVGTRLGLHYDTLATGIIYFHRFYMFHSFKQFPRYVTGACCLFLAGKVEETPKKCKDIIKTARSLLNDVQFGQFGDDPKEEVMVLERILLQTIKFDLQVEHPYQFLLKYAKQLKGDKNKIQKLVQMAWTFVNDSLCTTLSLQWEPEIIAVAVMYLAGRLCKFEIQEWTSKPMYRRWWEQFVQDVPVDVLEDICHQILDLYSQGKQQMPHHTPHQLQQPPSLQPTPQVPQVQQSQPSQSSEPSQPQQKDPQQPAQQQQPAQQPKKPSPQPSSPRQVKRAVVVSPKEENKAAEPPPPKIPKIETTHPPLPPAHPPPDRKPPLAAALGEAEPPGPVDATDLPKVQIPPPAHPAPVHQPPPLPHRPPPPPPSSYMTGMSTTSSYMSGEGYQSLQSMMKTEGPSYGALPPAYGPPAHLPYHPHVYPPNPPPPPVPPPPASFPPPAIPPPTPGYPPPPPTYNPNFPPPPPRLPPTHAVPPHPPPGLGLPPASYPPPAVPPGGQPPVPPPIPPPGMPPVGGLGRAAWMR
T1 sequence (P50750 whole entry): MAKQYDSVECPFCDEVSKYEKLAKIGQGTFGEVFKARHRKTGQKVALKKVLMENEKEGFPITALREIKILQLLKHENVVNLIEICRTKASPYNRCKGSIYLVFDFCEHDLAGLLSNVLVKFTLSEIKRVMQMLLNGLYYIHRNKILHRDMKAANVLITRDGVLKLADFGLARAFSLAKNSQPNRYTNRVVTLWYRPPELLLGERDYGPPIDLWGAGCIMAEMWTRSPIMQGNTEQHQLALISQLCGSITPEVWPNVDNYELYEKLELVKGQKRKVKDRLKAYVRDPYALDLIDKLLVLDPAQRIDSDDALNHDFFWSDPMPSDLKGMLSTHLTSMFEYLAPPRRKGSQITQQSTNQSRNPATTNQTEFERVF
T1 sequence (O60563 whole entry partner): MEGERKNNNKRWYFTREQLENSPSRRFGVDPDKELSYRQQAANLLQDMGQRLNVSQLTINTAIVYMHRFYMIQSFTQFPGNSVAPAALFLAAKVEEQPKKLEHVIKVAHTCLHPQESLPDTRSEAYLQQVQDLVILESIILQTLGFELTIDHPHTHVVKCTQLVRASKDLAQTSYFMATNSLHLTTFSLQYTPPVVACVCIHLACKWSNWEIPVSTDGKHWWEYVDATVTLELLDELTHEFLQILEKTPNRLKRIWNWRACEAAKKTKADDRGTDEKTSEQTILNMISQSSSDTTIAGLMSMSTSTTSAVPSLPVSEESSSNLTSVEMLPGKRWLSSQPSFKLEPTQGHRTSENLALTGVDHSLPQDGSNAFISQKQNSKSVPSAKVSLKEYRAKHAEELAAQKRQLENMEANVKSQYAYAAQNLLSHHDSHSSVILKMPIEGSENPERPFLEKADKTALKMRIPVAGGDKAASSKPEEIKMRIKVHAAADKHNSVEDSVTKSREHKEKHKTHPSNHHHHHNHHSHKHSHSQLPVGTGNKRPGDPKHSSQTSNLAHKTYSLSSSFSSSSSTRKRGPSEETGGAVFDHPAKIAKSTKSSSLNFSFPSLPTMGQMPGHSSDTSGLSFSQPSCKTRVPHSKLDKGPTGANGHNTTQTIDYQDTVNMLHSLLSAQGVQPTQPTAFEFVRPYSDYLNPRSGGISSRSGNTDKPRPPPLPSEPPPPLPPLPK
T3 sequence (O75909 whole entry): as the sequence (O75909 whole entry partner) above
T3 sequence (Q9NYV4 whole entry partner): as the sequence (Q9NYV4 whole entry) above

Compound	IC50 (CDK9/CycT1) [nM]	IC50 [1] [nM]	DC50 [2] [nM]	(IC50 CDK12 high ATP) to (Degradation DC50 CDK12) ratio [2]	DC50 [3] [nM]
N[C@@H]1CN(c2nc(NCc3nc4ccccc4[nH]3)n3ncc(Br)c3n2)CC12CC2 [Example 251, 2-[(7S)-7-amino-5-azaspiro[2.4]heptan-5-yl]-N-[(1H-benzimidazol-2-yl)methyl]-8-bromopyrazolo[1,5-a][1,3,5]triazin-4-amine]	> 20000	6.6	0.145	6727	0.11
Fc1ccc2[nH]c(CNc3nc(N4CCOCC4)nc4c(C5CC5(F)F)cnn34)nc2c1 (racemic) [Example 286, 8-[(1RS)-2,2-difluorocyclopropyl]-N-[(5-fluoro-1H-benzimidazol-2-yl)methyl]-2-(morpholin-4-yl)pyrazolo[1,5-a][1,3,5]triazin-4-amine]	> 20000	20.8	5.38	2107	1.89
Brc1cnn2c(NCc3nc4ccccc4[nH]3)nc(N3C[C@H]4CNC[C@H]4C3)nc12 [Example 283, N-[(1H-benzimidazol-2-yl)methyl]-8-bromo-2-[(3aR,6aS)-hexahydropyrrolo[3,4-c]pyrrol-2(1H)-yl]pyrazolo[1,5-a][1,3,5]triazin-4-amine]	> 20000	26.1	6.97	2630	0.367
FC(F)(F)Cc1cnn2c(NCc3nc4ccccc4[nH]3)nc(N3CCOCC3)nc12.O=CO [Example 265, formic acid-N-[(1H-benzimidazol-2-yl)methyl]-2-(morpholin-4-yl)-8-(2,2,2-trifluoroethyl)pyrazolo[1,5-a][1,3,5]triazin-4-amine (1/1)]	> 20000	35.4	7.23	>2310	3.14
Brc1cnn2c(NCc3nnc(-c4ccccc4)[nH]3)nc(N3CCOCC3)nc12 [Example 24, 8-bromo-2-(morpholin-4-yl)-N-[(5-phenyl-4H-1,2,4-triazol-3-yl)methyl]pyrazolo[1,5-a][1,3,5]triazin-4-amine]	3060	35.7	7.78	564	1.67
Fc1ccc2[nH]c(CNc3nc(N4CCOCC4)nc4c(C(F)(F)F)cnn34)nc2c1 [Example 273, N-[(5-fluoro-1H-benzimidazol-2-yl)methyl]-2-(morpholin-4-yl)-8-(trifluoromethyl)pyrazolo[1,5-a][1,3,5]triazin-4-amine]	> 20000	4.49	1.44	512	0.66
c1ccc2[nH]c(CNc3nc(N4CCOCC4)nc4c(C5CCCC5)cnn34)nc2c1 [Example 244, N-[(1H-benzimidazol-2-yl)methyl]-8-cyclopentyl-2-(morpholin-4-yl)pyrazolo[1,5-a][1,3,5]triazin-4-amine]	> 20000	218	101		15.6
FC(F)(F)Cc1cnn2c(NCc3nc4cc(Cl)ccc4[nH]3)nc(N3CCOCC3)nc12 [Example 299, N-[(5-chloro-1H-benzimidazol-2-yl)methyl]-2-(morpholin-4-yl)-8-(2,2,2-trifluoroethyl)pyrazolo[1,5-a][1,3,5]triazin-4-amine]	> 20000	4.71	7.77	822	0.484
Fc1cc2nc(CNc3nc(N4CCOCC4)nc4c(C5CC5)cnn34)[nH]c2cc1F [Example 318, 8-cyclopropyl-N-[(5,6-difluoro-1H-benzimidazol-2-yl)methyl]-2-(morpholin-4-yl)pyrazolo[1,5-a][1,3,5]triazin-4-amine]	> 20000	2.8	3.51	387	0.516
